Like-named read-outs stand apart in the source and are kept apart here.
Legend:
Hex A = Hex A (Homo sapiens, UniProt P06865+P07686); test: Hex A inhibition (IC50 from dose response curves of Hex A residual activity); conditions: for pKHA: pH dependence of Hex A inhibition;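 on all read-outs here: remaining Hex A enzyme activity recorded across rising inhibitor doses, with dose response curves run at pH 6.5 and again at pH 4.5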
Procedure: The NINDS library was screened for compounds having Hex A inhibitory activity.
(§1) Experiments were performed using 1.6 mM 4-methylumbelliferone-b-N-Acetylglucosamine substrate.

patient fibroblasts = test: Cell viability by Alamar Blue; assay type: cell-based, human; conditions: concentrations greater than 100 μM, five days of treatment
mutant Hex A [1] = assay type: cell-based, human
Procedure: The cells were harvested and assayed for Hex A using a fluorescent artificial substrate, MUGS. The increase in Hex A activity relative to that of untreated cells is given, i.e. no change in activity=1;
Cells were grown in the indicated concentrations of either drug for five days. The cells were harvested and assayed for Hex A activity using a fluorescent artificial substrate, MUGS. The increase in Hex A activity relative to that of untreated cells is given, i.e. no change in activity=1.
Two of the other cultures were un-genotyped infantile Tay-Sachs disease fibroblast cell lines. […] The increase in Hex A activity relative to that of untreated cells is given, i.e., no change in activity=1. The decrease in Hex A activity at high concentrations represents cell toxicity.

mutant Hex A [2] = molecular target: mutant Hex A (Homo sapiens, UniProt P06865+P07686); assay type: cell-based; conditions: for Max Increase: maximum increase in Hex A activity relative to untreated cells (=1); for Range of Increase: range of increase in Hex A activity; for EC50: Hex A rescue, determined from graphs of FIGS. 5-7
Procedure: Using the graphs of FIGS. 5-7, the EC50 values for Hex A rescue were determined as well as the maximum increase and range of increase in Hex A activity. These values are tabulated in Table 2, together with the IC50 values for Hex A inhibition that were determined in Example 3.

malaria = conditions: cited from earlier work
lysosomal HexA = test: Intracellular hydrolysis of fluorescent GM2 ganglioside derivative in patient cells; assay type: cell-based, human; conditions: PYRdCl 11 μg/ml vs PYR 33 μg/ml, 10 days
Procedure: Prior to evaluation of the GM2 hydrolytic activity of lysosomal HexA, cells were treated with Conduritol b-epoxide (Glucocerebrosidase inhibitor) to limit hydrolysis beyond (GlcCer) loaded with a fluorescent derivative of GM2 ganglioside for 8 hrs. Neutral glycolipids and gangliosides were separated by Folch extraction of the treated cells. Gangliosides and glycolipids were resolved by High Performance Thin Layer Chromatography and visualized by Fluorescence Imaging (Storm Imager, Molecular Devices).

HexB = HexB (Homo sapiens, UniProt P07686); test: HexB inhibition (purified isozyme); assay type: biochemical
Chain of HexB (P07686 122-311 limits assumed): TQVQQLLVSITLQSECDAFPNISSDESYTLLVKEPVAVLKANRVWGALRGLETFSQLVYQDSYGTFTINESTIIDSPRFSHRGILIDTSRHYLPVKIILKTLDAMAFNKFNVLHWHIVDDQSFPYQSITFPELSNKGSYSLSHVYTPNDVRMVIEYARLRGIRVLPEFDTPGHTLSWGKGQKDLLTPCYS
Chain of HexB (P07686 315-556 limits assumed): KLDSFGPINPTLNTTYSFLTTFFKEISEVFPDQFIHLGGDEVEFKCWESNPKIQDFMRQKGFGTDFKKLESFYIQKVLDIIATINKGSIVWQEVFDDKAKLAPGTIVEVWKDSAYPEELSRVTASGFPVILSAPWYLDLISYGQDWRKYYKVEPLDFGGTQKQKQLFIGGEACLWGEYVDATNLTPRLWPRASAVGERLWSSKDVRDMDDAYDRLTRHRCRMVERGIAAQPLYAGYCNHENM
Procedure: as §1

HexA wt = molecular target: T1, HexA wt (Homo sapiens, UniProt P06865+P07686); test: Inhibition of HexA enriched from normal fibroblasts; assay type: biochemical; conditions: pH 4.5
T1 construct: endogenous in cells; host or cells: normal fibroblasts (HexA isozyme enriched from them)
T1 sequence (P06865 89-529): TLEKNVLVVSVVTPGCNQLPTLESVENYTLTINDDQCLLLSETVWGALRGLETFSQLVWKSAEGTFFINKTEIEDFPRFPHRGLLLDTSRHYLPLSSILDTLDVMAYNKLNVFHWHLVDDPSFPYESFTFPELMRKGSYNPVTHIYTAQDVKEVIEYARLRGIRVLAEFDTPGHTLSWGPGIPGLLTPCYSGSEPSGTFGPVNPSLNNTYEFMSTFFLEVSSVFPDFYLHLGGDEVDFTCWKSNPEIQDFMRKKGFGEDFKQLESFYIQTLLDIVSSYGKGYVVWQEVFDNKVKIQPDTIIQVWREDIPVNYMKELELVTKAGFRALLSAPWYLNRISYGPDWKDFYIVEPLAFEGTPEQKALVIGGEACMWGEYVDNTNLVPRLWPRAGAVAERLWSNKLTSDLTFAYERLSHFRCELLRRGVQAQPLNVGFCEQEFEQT
T1 sequence (P07686 122-311 limits assumed): as the sequence (P07686 122-311 limits assumed) above
T1 sequence (P07686 315-556 limits assumed): as the sequence (P07686 315-556 limits assumed) above
Procedure: as §1

[3] = molecular target: T2, purified recombinant human DHFR (Homo sapiens, UniProt P00374); test: DHFR inhibition; assay type: biochemical; conditions: FIG. 13B
T2 sequence (P00374 1-187): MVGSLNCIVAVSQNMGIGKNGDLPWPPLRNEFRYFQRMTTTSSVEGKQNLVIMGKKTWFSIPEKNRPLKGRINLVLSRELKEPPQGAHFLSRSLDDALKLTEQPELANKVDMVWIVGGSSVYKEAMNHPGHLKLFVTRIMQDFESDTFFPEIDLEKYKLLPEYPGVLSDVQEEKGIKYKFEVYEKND

[4] = IC50 (μM ± Err), Hex A inhibition, values determined in Example 3, pH not given
[5] = IC50 (μM), without error, pH not stated
[6] = IC50 (μM ± Err), in brackets, brackets: IC50 extrapolated from an incomplete dose response curve
[7] = IC50 (μM), compounds with bracketed IC50, extrapolated from an incomplete dose response curve
[8] = read-out: IC50 (μM ± Err), Hex A inhibition, values determined in Example 3, pH not given

Chain of Hex A (P06865 89-529): as the sequence (P06865 89-529) above
Chain of Hex A (P07686 122-311 limits assumed): as the sequence (P07686 122-311 limits assumed) above
Chain of Hex A (P07686 315-556 limits assumed): as the sequence (P07686 315-556 limits assumed) above

SMILES | Max Increase (mutant Hex A [2]) | Range of Increase (mutant Hex A [2]) | IC50 (Hex A; [4]) | IC50 (Hex A; [5]) | EC50 (mutant Hex A [2]) | IC50 (Hex A; [6]) | other results
CC1=N[C@@H]2[C@@H](O)[C@H](O)[C@@H](CO)O[C@@H]2S1 [NGT, NAG-thiazoline, reference compound] | – | – | – | – | – | – | pKHA (Hex A): 4.5
CCc1nc(N)nc(N)c1-c1ccc(Cl)cc1 [PYR, Pyrimethamine, reference compound] | 2.0 | 4 | – | – | – | – | reduction of viability compared to PYRdCl treated patient fibroblasts (patient fibroblasts): more than 20%; pKHA (Hex A): 6.5; cell toxicity (mutant Hex A [1]; 33.33 μg/ml, five days): cell death was occurring; rescue of mutant Hex A activity compared with NGT (mutant Hex A [1]; fibroblasts expressing αG269S, four days (FIG. 1)): better able to rescue mutant Hex A activity; Max Increase (mutant Hex A [2]; listed as PYR (vsa7)): 1.4
CCc1nc(N)nc(N)c1-c1ccc(C(F)(F)F)cc1 [jts16] | 1.3 | 4 | 18 ± 1 µM | 17.7 µM | 5.14 µM | – | –
CC(C)c1nc(N)nc(N)c1-c1ccc(Cl)cc1 [jts20] | – | – | 406 ± 2 µM | 406 µM | – | – | –
Cc1nc(N)nc(N)c1-c1ccc(Cl)cc1 [jts22] | – | – | 556 ± 1 µM | 556 µM | – | – | –
Cc1nc(N)nc(N)c1-c1ccccc1 [ksh3-05] | – | – | – | – | – | 1230 µM | IC50 (Hex A; [7]): 1230 µM
CCc1nc(N)nc(N)c1-c1ccccc1 [ksh3-10] | 2.6 | 4 | – | – | 38.4 µM | – | activity against malaria relative to PYR (malaria): inferior activity against malaria relative to PYR; intracellular hydrolysis of fluorescent GM2 ganglioside derivative (lysosomal HexA): greater intracellular hydrolysis; IC50 (HexB; pH 4.5, 1.6 mM substrate, read-out: IC50 HexB pH 4.5): 38 µM; IC50 (HexB; pH 7, read-out: IC50 HexB pH 7): 15 µM; IC50 (Hex A; [8]): 32 ± 1 µM; IC50 (Hex A; read-out: IC50 HexA pH 7, purified HexA, pH 7): 11 µM; IC50 (Hex A; without error, pH not stated): 32 µM; fold increase in Hex A activity (mutant Hex A [1]; 33.33 μg/ml, five days, relative to untreated cells (FIG. 5)): 7 fold; Hex A rescue response compared with PYR (mutant Hex A [1]; all Tay-Sachs cell lines tested (FIG. 5)): as good or a better than PYR; IC50 (HexA wt): 27 µM; fold increase in Hex A activity (rescue of mutant Hex A) (mutant Hex A [2]; concentration of 100 μM (FIGS. 6 and 7)): ~3 fold; IC50 [3]: 0.2 µM
Cc1nc(N)nc(N)c1-c1ccc(F)cc1 [ksh3-14a] | – | – | – | – | – | 923 µM | IC50 (Hex A; [7]): 923 µM
Cc1ccc(-c2c(C)nc(N)nc2N)cc1 [ksh3-14b] | – | – | – | – | – | 1720 µM | IC50 (Hex A; [7]): 1720 µM
Cc1ccc(-c2c(C)nc(N)nc2N)cc1 [ksh3-14c] | – | – | – | – | – | 3830 µM | IC50 (Hex A; [7]): 3830 µM
Cc1cccc(-c2c(C)nc(N)nc2N)c1 [ksh3-14d] | – | – | – | – | – | 10400 µM | –
Cc1cc(C)cc(-c2c(C)nc(N)nc2N)c1 [ksh3-14e] | – | – | – | – | – | 1230 µM | IC50 (Hex A; [7]): 1230 µM
CCc1nc(N)nc(N)c1-c1ccc(F)cc1 [ksh3-17] | 1.8 | 4 | 50 ± 1 µM | 50.4 µM | 8.24 µM | – | –
CCc1nc(N)nc(N)c1-c1ccc(C)cc1 [ksh3-19b] | 1.5 | 4 | 72 ± 2 µM | 72.3 µM | 4.44 µM | – | –
CCc1nc(N)nc(N)c1-c1ccccc1C [ksh3-19c] | 1.9 | 4 | 44 ± 1 µM | 43.7 µM | 4.95 µM | – | –
CCc1nc(N)nc(N)c1-c1cccc(C)c1 [ksh3-19d] | 2.1 | 5 | – | 34.5 µM | 6.67 µM | – | IC50 (Hex A; [8]): 34 ± 1 µM
CCc1nc(N)nc(N)c1-c1cc(C)cc(C)c1 [ksh3-19e] | 2.2 | 3 | – | – | 16.4 µM | – | IC50 (Hex A; [8]): 47 ± 1 µM; IC50 (Hex A; without error, pH not stated): 47.4 µM
CCCc1nc(N)nc(N)c1-c1ccccc1 [ksh3-29] | 1.6 | 3 | 37 ± 1 µM | 36.6 µM | 12.1 µM | – | –
CCCc1nc(N)nc(N)c1-c1ccc(F)cc1 [ksh3-33a] | 1.4 | 4 | 39 ± 1 µM | 39.1 µM | 12.5 µM | – | –

SMILES | Max Increase (mutant Hex A [2]) | Range of Increase (mutant Hex A [2]) | IC50 (Hex A; [4]) | IC50 (Hex A; [5]) | EC50 (mutant Hex A [2]) | IC50 (Hex A; [6]) | other results
CCCc1nc(N)nc(N)c1-c1ccccc1C [ksh3-33c] | – | – | – | – | – | 825 µM | –
CCCc1nc(N)nc(N)c1-c1cccc(C)c1 [ksh3.33d] | 1.7 | 3 | 50 ± 1 µM | 50.4 µM | 14.8 µM | – | –
CCCc1nc(N)nc(N)c1-c1cc(C)cc(C)c1 [ksh3.33e] | 1.6 | 1 | 24 ± 1 µM | 24.4 µM | – | – | –
CCc1ncncc1-c1ccc(C(F)(F)F)cc1 [vsa4] | – | – | – | – | – | 2110 µM | –
CCc1nc(N)nc(N)c1-c1ccc(C(F)(F)F)cc1 [vsa5] | 1.4 | 3 | – | 14.7 µM | 2.24 µM | – | IC50 (Hex A; [8]): 15 ± 1 µM
CCc1ncnc(N)c1-c1ccc(C(F)(F)F)cc1 [vsa6] | – | – | – | – | – | 936 µM | IC50 (Hex A; [7]): 936 µM
CCC1=C(c2ccc(Cl)cc2)C(N)=NCN1 [vsa8] | – | – | – | – | – | 967 µM | IC50 (Hex A; [7]): 967 µM
CCc1[nH]c(=O)nc(N)c1-c1ccc(Cl)cc1 [vsa9] | – | – | – | – | – | 400 µM | –
CCCCc1nc(N)nc(N)c1-c1ccc(Cl)cc1 [zjm1-91] | – | – | – | – | – | 1360 µM | IC50 (Hex A; [7]): 1360 µM
CCCCc1nc(N)nc(N)c1-c1ccc(C)cc1 [zjm1-111] | – | – | – | – | – | 600 µM | IC50 (Hex A; [7]): 600 µM
CCCCc1nc(N)nc(N)c1-c1ccc(OC)cc1 [zjm1-113] | – | – | – | – | – | 870 µM | IC50 (Hex A; [7]): 870 µM
CCCCc1nc(N)nc(N)c1-c1ccc(C(F)(F)F)cc1 [zjm1-115] | – | – | 142 ± 3 µM | 142 µM | – | – | –
CCCc1nc(N)nc(N)c1-c1ccc(Cl)cc1 [zjm1-135] | 1.4 | 3 | – | – | 7.14 µM | – | IC50 (Hex A; [8]): 18 ± 1 µM; IC50 (Hex A; without error, pH not stated): 17.9 µM
CCCc1nc(N)nc(N)c1-c1ccc(C)cc1 [zjm1-137] | 2.0 | 3 | 28 ± 1 µM | 28.4 µM | 4.6 µM | – | –
CCCc1nc(N)nc(N)c1-c1ccc(OC)cc1 [zjm1-139] | 2.3 | 4 | 28 ± 1 µM | 28.2 µM | 14.2 µM | – | –
CCCc1nc(N)nc(N)c1-c1ccc(C(F)(F)F)cc1 [zjm1-141] | 1.5 | 3 | 16 ± 1 µM | 15.9 µM | 11.6 µM | – | –
NCc1nc(N)nc(N)c1-c1ccc(Cl)cc1 [zjm7-27] | 1.4 | 1 | 176 ± 1 µM | 176 µM | – | – | –
CCc1nc(N)nc(N)c1-c1cccs1 [zjm7-67] | 1.7 | 2 | 31 ± 1 µM | 30.8 µM | 6.46 µM | – | –
CCc1nc(N)nc(N)c1-c1ccsc1 [zjm7-69] | 1.9 | 4 | 55 ± 1 µM | 55 µM | 10 µM | – | –

From patent US20150272951A1, “COMPOUNDS FOR THE TREATMENT OF LYSOSOMAL STORAGE DISEASES” (The Hospital for Sick Children, priority 2010, published 2015)
